Consider one compound from ChEMBL document CHEMBL5113423, “Discovery and preclinical profile of sudapyridine (WX-081), a novel anti-tuberculosis agent” (Bioorg Med Chem Lett, 2022).

In the assay the test system is Mycobacterium tuberculosis variant bovis. Put plainly: Antimycobacterial activity against Mycobacterium bovis ATCC35737 assessed as mycobacterial growth inhibition. The assay is classed as functional.

The structures appear in SMILES notation. In brackets after ≈: the same amount, converted by molar mass.

Regarding `COc1ncc(-c2ccccc2)cc1[C@@H](c1ccccc1)[C@@](O)(CCN(C)C)c1cccc2ccccc12`, the MIC was 0.5 µg/mL (≈ 0.995 µM).

Broadly, the MIC is the smallest concentration in the dilution series that meets the test's criterion for growth inhibition.
